Results published in publication PMC11003488 (Journal of Enzyme Inhibition and Medicinal Chemistry, 2023).

Tests used:
786-0 = assay: NCI-60 SRB growth inhibition, one-dose and five-dose; type: cell-based; details: Homo sapiens, 786-0, read-out: percent growth inhibition
K-562 = assay: as above; type: cell-based; details: Homo sapiens, K562, read-out: percent growth inhibition
MOLT-4 = assay: as above; type: cell-based; details: Homo sapiens, MOLT-4, read-out: percent growth inhibition
[1] = tested on: NCI 60-cell line panel (full panel); assay: NCI-60 SRB growth inhibition, full panel mean / MG-MID; type: cell-based, human; details: mean over NCI-60 panel; single dose 10 µM
A549/ATCC = assay: NCI-60 SRB growth inhibition, one-dose and five-dose; type: cell-based; details: Homo sapiens, A549, read-out: percent growth inhibition
HT29 = assay: as above; type: cell-based; details: Homo sapiens, HT-29, read-out: percent growth inhibition
SK-MEL-2 = assay: as above; type: cell-based; details: Homo sapiens, SK-MEL-2, read-out: percent growth inhibition
M14 = assay: as above; type: cell-based; details: Homo sapiens, M14, read-out: percent growth inhibition
OVCAR-3 = assay: as above; type: cell-based; details: Homo sapiens, OVCAR-3, read-out: percent growth inhibition
SK-OV-3 = assay: as above; type: cell-based; details: Homo sapiens, SK-OV-3, read-out: percent growth inhibition
SW-620 = assay: as above; type: cell-based; details: Homo sapiens, SW-620, read-out: percent growth inhibition
SNB-75 = assay: as above; type: cell-based; details: Homo sapiens, SNB-75, read-out: percent growth inhibition
COLO 205 = assay: as above; type: cell-based; details: Homo sapiens, COLO 205, read-out: percent growth inhibition
OVCAR-4 = assay: as above; type: cell-based; details: Homo sapiens, OVCAR-4, read-out: percent growth inhibition
CCRF-CEM = assay: as above; type: cell-based; details: Homo sapiens, read-out: percent growth inhibition
NCI-H522 = assay: as above; type: cell-based; details: Homo sapiens, NCI-H522, read-out: percent growth inhibition
T-47D = assay: as above; type: cell-based; details: Homo sapiens, T47D, read-out: percent growth inhibition
NCI-H460 = assay: as above; type: cell-based; details: Homo sapiens, NCI-H460, read-out: percent growth inhibition
MALME-3M = assay: as above; type: cell-based; details: Homo sapiens, read-out: percent growth inhibition
SF-295 = assay: as above; type: cell-based; details: Homo sapiens, SF-295, read-out: percent growth inhibition
NCI-H322M = assay: as above; type: cell-based; details: Homo sapiens, read-out: percent growth inhibition
NCI/ADR-RES = assay: as above; type: cell-based; details: Homo sapiens, read-out: percent growth inhibition
MDA-MB-468 = assay: as above; type: cell-based; details: Homo sapiens, MDA-MB-468, read-out: percent growth inhibition
NCI-H23 = assay: as above; type: cell-based; details: Homo sapiens, NCI-H23, read-out: percent growth inhibition
CAKI-1 = assay: as above; type: cell-based; details: Homo sapiens, CAKI-1, read-out: percent growth inhibition
RXF 393 = assay: as above; type: cell-based; details: Homo sapiens, RXF 393, read-out: percent growth inhibition
OVCAR-5 = assay: as above; type: cell-based; details: Homo sapiens, OVCAR-5, read-out: percent growth inhibition
BT-549 = assay: as above; type: cell-based; details: Homo sapiens, BT-549, read-out: percent growth inhibition
U251 = assay: as above; type: cell-based; details: Homo sapiens, U-251, read-out: percent growth inhibition
UACC-257 = assay: as above; type: cell-based; details: Homo sapiens, UACC-257, read-out: percent growth inhibition
SK-MEL-5 = assay: as above; type: cell-based; details: Homo sapiens, SK-MEL-5, read-out: percent growth inhibition
LOX IMVI = assay: as above; type: cell-based; details: Homo sapiens, read-out: percent growth inhibition
DU-145 = assay: as above; type: cell-based; details: Homo sapiens, DU-145, read-out: percent growth inhibition
SNB-19 = assay: as above; type: cell-based; details: Homo sapiens, SNB-19, read-out: percent growth inhibition
EKVX = assay: as above; type: cell-based; details: Homo sapiens, read-out: percent growth inhibition
SK-MEL-28 = assay: as above; type: cell-based; details: Homo sapiens, SK-MEL-28, read-out: percent growth inhibition
HCT-15 = assay: as above; type: cell-based; details: Homo sapiens, HCT-15, read-out: percent growth inhibition
SF-268 = assay: as above; type: cell-based; details: Homo sapiens, SF-268, read-out: percent growth inhibition
MCF7 = assay: as above; type: cell-based; details: Homo sapiens, MCF7, read-out: percent growth inhibition
A498 = assay: as above; type: cell-based; details: Homo sapiens, A498, read-out: percent growth inhibition
HOP-92 = assay: as above; type: cell-based; details: Homo sapiens, HOP-92, read-out: percent growth inhibition

**Q.** What does the source list for CC(=O)Nc1ccc(/C=C/C(=O)c2cccc(NCc3ccc4oc(=O)ccc4c3)c2)cc1 [Compound 5k, (E)-N-(4–(3-oxo-3–(3-(((2-oxo-2H-chromen-6-yl)methyl)amino)phenyl)prop-1-en-1-yl)phenyl)acetamide]?
**A.** inhibition at 10 µM (786-0): 24.2%; inhibition at 10 µM (K-562): 93.3%; inhibition at 10 µM (MOLT-4): 84.2%; Full panel Mean GI % [1]: 39.00%; inhibition at 10 µM (A549/ATCC): 21.5%; inhibition at 10 µM (HT29): 15.6%; inhibition at 10 µM (SK-MEL-2): 35.7%; inhibition at 10 µM (M14): 30.6%; inhibition at 10 µM (OVCAR-3): 41.7%; inhibition at 10 µM (SK-OV-3): 3.88%; inhibition at 10 µM (SW-620): 52.2%; inhibition at 10 µM (SNB-75): 25.4%; inhibition at 10 µM (COLO 205): -13.2%; inhibition at 10 µM (OVCAR-4): 43.9%; inhibition at 10 µM (CCRF-CEM): 87.9%; inhibition at 10 µM (NCI-H522): 36.3%; inhibition at 10 µM (T-47D): 66%; inhibition at 10 µM (NCI-H460): 22.7%; inhibition at 10 µM (MALME-3M): 37.8%; inhibition at 10 µM (SF-295): 36.8%; inhibition at 10 µM (NCI-H322M): 15.3%; inhibition at 10 µM (NCI/ADR-RES): 68.9%; inhibition at 10 µM (MDA-MB-468): 72.9%; inhibition at 10 µM (NCI-H23): 38.6%; inhibition at 10 µM (CAKI-1): 37.7%; inhibition at 10 µM (RXF 393): 18%; inhibition at 10 µM (OVCAR-5): 16.8%; inhibition at 10 µM (BT-549): 55.8%; inhibition at 10 µM (U251): 49%; inhibition at 10 µM (UACC-257): 45.1%; inhibition at 10 µM (SK-MEL-5): 76.3%; inhibition at 10 µM (LOX IMVI): 57.8%; inhibition at 10 µM (DU-145): 18.3%; inhibition at 10 µM (SNB-19): 38.8%; inhibition at 10 µM (EKVX): 64.5%; inhibition at 10 µM (SK-MEL-28): 21.2%; inhibition at 10 µM (HCT-15): 50.7%; inhibition at 10 µM (SF-268): 18.2%; inhibition at 10 µM (MCF7): 73.6%; inhibition at 10 µM (A498): 20.4%; inhibition at 10 µM (HOP-92): 3.27%

**Q.** For CC(=O)Nc1ccc(CNc2cccc(C(=O)/C=C/c3c[nH]cn3)c2)cc1 [Compound 5l, (E)-N-(4-(((3–(3-(1H-imidazol-4-yl)acryloyl)phenyl)amino)methyl)phenyl)acetamide], which inhibition at 10 µM (786-0) is on record?
**A.** The inhibition at 10 µM was 11.6%.

**Q.** And the inhibition at 10 µM (K-562)?
**A.** The inhibition at 10 µM was 80.8%.

**Q.** And the inhibition at 10 µM (MOLT-4)?
**A.** Its inhibition at 10 µM is 40.3%.

**Q.** And the “Full panel Mean GI %” value [1]?
**A.** The value was 24.10%.

**Q.** What about the inhibition at 10 µM (A549/ATCC) of the same compound?
**A.** The inhibition at 10 µM was 7.54%.

**Q.** What about the inhibition at 10 µM (HT29) of the same compound?
**A.** Its inhibition at 10 µM is 8.22%.

**Q.** What about the inhibition at 10 µM (SK-MEL-2) of the same compound?
**A.** Its inhibition at 10 µM is 12.8%.

**Q.** What about the inhibition at 10 µM (M14) of the same compound?
**A.** The inhibition at 10 µM was 13.5%.

**Q.** And the inhibition at 10 µM (OVCAR-3)?
**A.** The inhibition at 10 µM was 33.8%.

**Q.** What about the inhibition at 10 µM (SK-OV-3) of the same compound?
**A.** The inhibition at 10 µM was -9.94%.

**Q.** And the inhibition at 10 µM (SW-620)?
**A.** Its inhibition at 10 µM is 24.8%.

**Q.** And the inhibition at 10 µM (SNB-75)?
**A.** The inhibition at 10 µM was 11.7%.

**Q.** What about the inhibition at 10 µM (COLO 205) of the same compound?
**A.** Its inhibition at 10 µM is -8.23%.

**Q.** And the inhibition at 10 µM (OVCAR-4)?
**A.** Its inhibition at 10 µM is 17.3%.

**Q.** What about the inhibition at 10 µM (CCRF-CEM) of the same compound?
**A.** The inhibition at 10 µM was 98%.

**Q.** What about the inhibition at 10 µM (NCI-H522) of the same compound?
**A.** Its inhibition at 10 µM is 64.2%.

**Q.** And the inhibition at 10 µM (T-47D)?
**A.** The inhibition at 10 µM was 56.9%.

**Q.** What about the inhibition at 10 µM (NCI-H460) of the same compound?
**A.** The inhibition at 10 µM was 4.86%.

**Q.** What about the inhibition at 10 µM (MALME-3M) of the same compound?
**A.** Its inhibition at 10 µM is 26.4%.

**Q.** What about the inhibition at 10 µM (SF-295) of the same compound?
**A.** Its inhibition at 10 µM is -1.21%.

**Q.** And the inhibition at 10 µM (NCI-H322M)?
**A.** Its inhibition at 10 µM is 12.8%.

**Q.** And the inhibition at 10 µM (NCI/ADR-RES)?
**A.** Its inhibition at 10 µM is -1.58%.

**Q.** And the inhibition at 10 µM (MDA-MB-468)?
**A.** Its inhibition at 10 µM is 84%.

**Q.** What about the inhibition at 10 µM (NCI-H23) of the same compound?
**A.** The inhibition at 10 µM was 11.5%.

**Q.** And the inhibition at 10 µM (CAKI-1)?
**A.** Its inhibition at 10 µM is 12.4%.

**Q.** What about the inhibition at 10 µM (RXF 393) of the same compound?
**A.** The inhibition at 10 µM was 37.7%.

**Q.** What about the inhibition at 10 µM (OVCAR-5) of the same compound?
**A.** Its inhibition at 10 µM is 5.08%.

**Q.** And the inhibition at 10 µM (BT-549)?
**A.** The inhibition at 10 µM was 34.9%.

**Q.** What about the inhibition at 10 µM (U251) of the same compound?
**A.** Its inhibition at 10 µM is 48.3%.

**Q.** What about the inhibition at 10 µM (UACC-257) of the same compound?
**A.** The inhibition at 10 µM was 19.3%.

**Q.** And the inhibition at 10 µM (SK-MEL-5)?
**A.** Its inhibition at 10 µM is 16%.

**Q.** And the inhibition at 10 µM (LOX IMVI)?
**A.** The inhibition at 10 µM was 45.3%.

**Q.** What about the inhibition at 10 µM (DU-145) of the same compound?
**A.** The inhibition at 10 µM was 11.1%.

**Q.** What about the inhibition at 10 µM (SNB-19) of the same compound?
**A.** Its inhibition at 10 µM is 26.6%.

**Q.** What about the inhibition at 10 µM (EKVX) of the same compound?
**A.** The inhibition at 10 µM was 24.8%.

**Q.** What about the inhibition at 10 µM (SK-MEL-28) of the same compound?
**A.** Its inhibition at 10 µM is 13.4%.

**Q.** What about the inhibition at 10 µM (HCT-15) of the same compound?
**A.** The inhibition at 10 µM was 14.3%.

**Q.** What about the inhibition at 10 µM (SF-268) of the same compound?
**A.** The inhibition at 10 µM was 19.4%.

**Q.** And the inhibition at 10 µM (MCF7)?
**A.** The inhibition at 10 µM was 81.8%.

**Q.** And the inhibition at 10 µM (A498)?
**A.** The inhibition at 10 µM was 11.1%.

**Q.** And the inhibition at 10 µM (HOP-92)?
**A.** Its inhibition at 10 µM is 12.3%.
